In patent publication US11332468B2, “Azaindole derivatives as Rho-kinase inhibitors” (CHIESI FARMACEUTICI S.p.A., priority 2017, dated 2022) one finds Ki data, which are given here for 35 compounds.

Assay [1] concerns the target Rho kinase 1 (ROCK1) (Homo sapiens, UniProt Q13464). Briefly: In vitro Rho kinase inhibitory activity assay (ADP-Glo), ROCK1. In kind it is biochemical. The note with it: Ki by Cheng-Prusoff from IC50; 10 μM ATP; range of activity. The method, then: (§1) The effectiveness of compounds of the invention to inhibit Rho kinase activity can be determined in a […] assay containing 40 mM Tris pH7.5, 20 mM MgC2 0.1 mg/ml BSA, 50 μM DTT and 2.5 μM peptide substrate (Myelin Basic Protein) using an ADP-Glo kit (Promega). Compounds were dissolved in DMSO such that the final concentration of DMSO was 1% in the assay. All reactions/incubations are performed at 25° C. Compound (2 ul) and either Rho kinase 1 or 2 (4 μl) were mixed and incubated for 30 mins. Reactions were initiated by addition of ATP (4 μl) such that the final concentration of ATP in the assay was 10 μM. After a 1 hour incubation 10 μl of ADP-Glo Reagent was added and after a further 45 minute incubation 20 ul of Kinase Detection Buffer was added and the mixture incubated for a further 30 minutes. The luminescent signal was measured on a luminometer. […] Compounds were tested in dose-response format and the inhibition of kinase activity was calculated at each concentration of compound. To determine the IC50 (concentration of compound required to inhibit 50% of the enzyme activity) data were fit to a plot of % inhibition vs Log10 compound concentration using a sigmoidal fit with a variable slope and fixing the maximum to 100% and the minimum to 0%. To determine the Ki values the Cheng-Prusoff equation was utilized (Ki=IC50/(1+[S]/Km)

In assay [2] the target is Rho kinase 2 (ROCK2) (Homo sapiens, UniProt O75116). Briefly: In vitro Rho kinase inhibitory activity assay (ADP-Glo), ROCK2. The format is biochemical. The note with it: Ki by Cheng-Prusoff from IC50; 10 μM ATP; range of activity. The method, then: as §1

SMILES strings stand for the structures.

Sequence of Rho kinase 2 (ROCK2) (O75116 whole entry): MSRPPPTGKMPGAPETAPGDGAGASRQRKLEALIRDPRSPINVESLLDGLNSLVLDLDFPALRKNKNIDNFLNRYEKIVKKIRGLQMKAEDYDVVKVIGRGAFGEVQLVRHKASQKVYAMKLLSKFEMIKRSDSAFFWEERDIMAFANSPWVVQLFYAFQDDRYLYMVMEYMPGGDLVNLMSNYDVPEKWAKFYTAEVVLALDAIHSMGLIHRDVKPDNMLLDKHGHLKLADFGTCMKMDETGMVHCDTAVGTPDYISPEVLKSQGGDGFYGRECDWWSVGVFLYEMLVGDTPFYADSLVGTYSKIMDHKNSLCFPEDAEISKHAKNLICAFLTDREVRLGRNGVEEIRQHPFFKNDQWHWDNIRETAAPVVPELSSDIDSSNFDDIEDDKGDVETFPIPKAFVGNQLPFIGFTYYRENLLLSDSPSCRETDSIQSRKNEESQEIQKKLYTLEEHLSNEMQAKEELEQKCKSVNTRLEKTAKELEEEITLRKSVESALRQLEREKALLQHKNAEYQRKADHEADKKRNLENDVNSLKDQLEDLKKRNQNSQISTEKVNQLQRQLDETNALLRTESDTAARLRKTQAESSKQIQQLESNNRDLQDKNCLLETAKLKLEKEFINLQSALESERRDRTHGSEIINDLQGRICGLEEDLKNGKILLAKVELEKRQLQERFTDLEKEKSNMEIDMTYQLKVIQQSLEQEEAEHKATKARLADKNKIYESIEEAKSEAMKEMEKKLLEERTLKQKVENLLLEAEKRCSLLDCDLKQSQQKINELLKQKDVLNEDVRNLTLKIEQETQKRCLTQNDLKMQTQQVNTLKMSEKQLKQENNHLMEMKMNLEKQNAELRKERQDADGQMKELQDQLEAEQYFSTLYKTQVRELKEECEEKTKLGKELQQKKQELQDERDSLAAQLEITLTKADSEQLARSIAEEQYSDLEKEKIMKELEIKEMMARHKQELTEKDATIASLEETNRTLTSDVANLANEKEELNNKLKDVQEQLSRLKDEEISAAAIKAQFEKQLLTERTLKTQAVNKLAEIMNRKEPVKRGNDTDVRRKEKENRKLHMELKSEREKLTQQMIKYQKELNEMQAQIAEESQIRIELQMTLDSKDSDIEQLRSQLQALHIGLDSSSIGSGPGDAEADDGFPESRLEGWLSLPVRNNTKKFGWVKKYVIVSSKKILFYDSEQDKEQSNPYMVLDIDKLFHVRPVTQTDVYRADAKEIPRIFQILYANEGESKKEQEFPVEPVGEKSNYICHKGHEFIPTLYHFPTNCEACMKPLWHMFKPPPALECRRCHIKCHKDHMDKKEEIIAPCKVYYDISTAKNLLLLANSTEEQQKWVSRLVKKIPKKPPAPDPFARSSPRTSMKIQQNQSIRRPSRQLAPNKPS
Sequence of Rho kinase 1 (ROCK1) (Q13464 whole entry): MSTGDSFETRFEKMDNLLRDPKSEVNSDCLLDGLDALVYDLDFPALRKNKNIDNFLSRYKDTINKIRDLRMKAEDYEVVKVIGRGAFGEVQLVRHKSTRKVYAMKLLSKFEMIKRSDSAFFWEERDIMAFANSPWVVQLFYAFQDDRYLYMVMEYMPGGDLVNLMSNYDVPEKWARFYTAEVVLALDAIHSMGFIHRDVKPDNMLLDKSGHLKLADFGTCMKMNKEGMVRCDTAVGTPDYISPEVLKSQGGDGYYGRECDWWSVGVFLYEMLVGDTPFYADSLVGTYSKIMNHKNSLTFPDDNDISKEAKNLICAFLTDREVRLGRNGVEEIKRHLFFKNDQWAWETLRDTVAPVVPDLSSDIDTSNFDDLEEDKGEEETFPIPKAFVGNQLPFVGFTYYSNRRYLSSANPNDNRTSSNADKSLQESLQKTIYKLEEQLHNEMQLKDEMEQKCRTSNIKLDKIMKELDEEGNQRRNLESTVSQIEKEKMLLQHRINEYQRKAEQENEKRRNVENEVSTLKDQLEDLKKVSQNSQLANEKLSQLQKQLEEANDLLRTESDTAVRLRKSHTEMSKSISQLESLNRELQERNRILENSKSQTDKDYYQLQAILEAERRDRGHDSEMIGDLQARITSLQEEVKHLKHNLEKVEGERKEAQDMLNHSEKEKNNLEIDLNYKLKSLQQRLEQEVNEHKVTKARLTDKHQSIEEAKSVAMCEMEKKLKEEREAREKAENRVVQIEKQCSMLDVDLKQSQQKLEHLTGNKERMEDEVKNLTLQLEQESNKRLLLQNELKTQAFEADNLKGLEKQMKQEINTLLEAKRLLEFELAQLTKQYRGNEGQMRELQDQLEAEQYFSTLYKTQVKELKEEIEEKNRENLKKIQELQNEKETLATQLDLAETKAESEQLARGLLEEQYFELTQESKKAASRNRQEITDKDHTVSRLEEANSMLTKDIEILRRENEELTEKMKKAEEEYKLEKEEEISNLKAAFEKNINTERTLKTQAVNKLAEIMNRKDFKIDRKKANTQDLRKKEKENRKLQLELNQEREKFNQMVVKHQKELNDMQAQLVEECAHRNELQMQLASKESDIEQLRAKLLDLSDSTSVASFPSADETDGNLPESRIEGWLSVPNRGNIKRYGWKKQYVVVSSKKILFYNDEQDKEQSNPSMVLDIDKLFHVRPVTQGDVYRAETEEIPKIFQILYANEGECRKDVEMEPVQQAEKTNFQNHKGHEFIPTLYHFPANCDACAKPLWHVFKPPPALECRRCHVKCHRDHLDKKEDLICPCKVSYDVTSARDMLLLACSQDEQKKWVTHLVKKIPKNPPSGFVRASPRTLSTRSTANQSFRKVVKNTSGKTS

With `Cc1c[nH]c2nccc(Oc3ccc(C4CCCN4)cc3)c12` (racemic) [Example 18, 3-methyl-4-(4-(pyrrolidin-2-yl)phenoxy)-1H-pyrrolo[2,3-b]pyridine], the Ki in assay [1] and in assay [2] was 5 to 50 nM in each case.
With `Cc1c[nH]c2nccc(Oc3ccc(C4CCCN4)cc3)c12` (single isomer, unassigned) [Example 18A, 3-methyl-4-(4-(pyrrolidin-2-yl)phenoxy)-1H-pyrrolo[2,3-b]pyridine], the values for the inhibition constant Ki in assay [1] and in assay [2] were 5 to 50 nM and less than 5 nM, respectively.
In assay [2], `Cc1c[nH]c2nccc(Oc3ccc(C4CCCN4)cc3)c12` (single isomer, unassigned) [Example 18B, 3-methyl-4-(4-(pyrrolidin-2-yl)phenoxy)-1H-pyrrolo[2,3-b]pyridine] returned a Ki of 5 to 50 nM.
`Cc1c[nH]c2nccc(Oc3ccc4c(c3)CNCC4)c12` [Example 1, 7-((3-Methyl-1H-pyrrolo[2,3-b]pyridin-4-yl)oxy)-1,2,3,4-tetrahydroisoquinoline]: the Ki in assay [1] and in assay [2] was less than 5 nM each time.
As to `Cc1c[nH]c2nccc(Oc3ccc4c(c3)CNC4)c12` [Example 2, 4-(isoindolin-5-yloxy)-3-methyl-1H-pyrrolo[2,3-b]pyridine], the Ki in assay [1] and in assay [2] was less than 5 nM each time.
For `CNCc1ccc(Oc2ccnc3[nH]cc(C)c23)cc1` [Example 3, N-methyl-1-(4-((3-methyl-1H-pyrrolo[2,3-b]pyridin-4-yl)oxy)phenyl)methanamine], the inhibitory constant (Ki) in assay [1] and in assay [2] was 5 to 50 nM throughout.
For the compound `NCCc1ccc(Oc2ccnc3[nH]ccc23)cc1` [Example 4, 2-(4-((1H-pyrrolo[2,3-b]pyridin-4-yl)oxy)phenyl)ethanamine], the inhibition constant (Ki) in assay [1] and in assay [2] was 5 to 50 nM in each case.
Take `Cc1c[nH]c2nccc(Oc3ccc4c(c3)CCNCC4)c12` [Example 5, 7-((3-methyl-1H-pyrrolo[2,3-b]pyridin-4-yl)oxy)-2,3,4,5-tetrahydro-1H-benzo[d]azepine]: the Ki in assay [1] and in assay [2] was less than 5 nM in each case.
On to `Cc1c[nH]c2ncnc(Oc3ccc4c(c3)CNCC4)c12` [Example 6, 7-((5-methyl-7H-pyrrolo[2,3-d]pyrimidin-4-yl)oxy)-1,2,3,4-tetrahydroisoquinoline], for which the inhibition constant Ki in assay [1] and in assay [2] was 5 to 50 nM throughout.
Take `Cc1c[nH]c2ncnc(Oc3ccc(C4CCNC4)cc3)c12` (stereo not drawn) [Example 7, 5-methyl-4-(4-(pyrrolidin-3-yl)phenoxy)-7H-pyrrolo[2,3-d]pyrimidine]: the Ki in assay [1] and in assay [2] was greater than 50 nM throughout.
On to `Cc1c[nH]c2ncnc(Oc3ccc(CCN)cc3)c12` [Example 8, 2-(4-((5-methyl-7H-pyrrolo[2,3-d]pyrimidin-4-yl)oxy)phenyl)ethanamine], for which the Ki in assay [1] and in assay [2] was greater than 50 nM in each case.
Consider `Cc1c[nH]c2ncnc(Oc3ccc(CN)cc3)c12` [Example 9, (4-((5-methyl-7H-pyrrolo[2,3-d]pyrimidin-4-yl)oxy)phenyl)methanamine], for which the Ki in assay [1] and in assay [2] was greater than 50 nM in each case.
`Cc1c[nH]c2nccc(Oc3ccc4c(c3)CN(C)CC4)c12` [Example 10, 2-methyl-7-((3-methyl-1H-pyrrolo[2,3-b]pyridin-4-yl)oxy)-1,2,3,4-tetrahydroisoquinoline]: the Ki in assay [1] and in assay [2] was less than 5 nM throughout.
On to `Cc1c[nH]c2nccc(Oc3ccc4c(c3)CCNC4)c12` [Example 11, 6-((3-methyl-1H-pyrrolo[2,3-b]pyridin-4-yl)oxy)-1,2,3,4-tetrahydroisoquinoline], for which the inhibitory constant (Ki) in assay [1] and in assay [2] was 5 to 50 nM each time.
In the case of `Cc1c[nH]c2nccc(Oc3ccc(CN)cc3F)c12` [Example 12, (3-fluoro-4-((3-methyl-1H-pyrrolo[2,3-b]pyridin-4-yl)oxy)phenyl)methanamine], the Ki in assay [1] and in assay [2] was less than 5 nM throughout.
With `Cc1c[nH]c2nccc(Oc3ccc(C4CNCCN4)cc3)c12` (stereo not drawn) [Example 13, 3-methyl-4-(4-(piperazin-2-yl)phenoxy)-1H-pyrrolo[2,3-b]pyridine], the Ki in assay [1] and in assay [2] was 5 to 50 nM in each case.
Turning to `Cc1c[nH]c2nccc(Oc3ccc4c(c3)CC(N)C4)c12` (stereo not drawn) [Example 14, 5-((3-methyl-1H-pyrrolo[2,3-b]pyridin-4-yl)oxy)-2,3-dihydro-1H-inden-2-amine], the Ki in assay [1] is 5 to 50 nM; in assay [2], less than 5 nM.
Consider `Cc1c[nH]c2nccc(Oc3ccc4c(c3)CCCNC4)c12` [Example 15, 7-((3-methyl-1H-pyrrolo[2,3-b]pyridin-4-yl)oxy)-2,3,4,5-tetrahydro-1H-benzo[c]azepine], for which the Ki in assay [1] and in assay [2] was 5 to 50 nM in each case.
With `Cc1c[nH]c2nccc(Oc3ccc4c(c3)CNCCC4)c12` [Example 16, 8-((3-methyl-1H-pyrrolo[2,3-b]pyridin-4-yl)oxy)-2,3,4,5-tetrahydro-1H-benzo[c]azepine], the Ki in assay [1] was 5 to 50 nM; in assay [2], less than 5 nM.
For the compound `Cc1c[nH]c2nccc(Oc3ccc(C4CNC4)cc3)c12` [Example 17, 4-(4-(azetidin-3-yl)phenoxy)-3-methyl-1H-pyrrolo[2,3-b]pyridine], the Ki was 5 to 50 nM in assay [1] and less than 5 nM in assay [2].
On to `Cc1c[nH]c2nccc(Oc3ccc(CCN)cc3)c12` [Example 19, 2-(4-((3-methyl-1H-pyrrolo[2,3-b]pyridin-4-yl)oxy)phenyl)ethanamine], for which the Ki in assay [1] and in assay [2] was less than 5 nM each time.
On to `Cc1c[nH]c2nccc(Oc3ccc(C4CCNC4)cc3)c12` (stereo not drawn) [Example 20, 3-methyl-4-(4-(pyrrolidin-3-yl)phenoxy)-1H-pyrrolo[2,3-b]pyridine], for which the inhibition constant (Ki) in assay [1] and in assay [2] was less than 5 nM throughout.
In the case of `Cc1c[nH]c2nccc(Oc3ccc(CN)cc3)c12` [Example 21, (4-((3-methyl-1H-pyrrolo[2,3-b]pyridin-4-yl)oxy)phenyl)methanamine], the Ki in assay [1] is 5 to 50 nM; in assay [2], less than 5 nM.
In the same order, the values of `Cc1c[nH]c2nccc(Oc3ccc(CCN4CCCC4)cc3)c12` [Example 22, 3-methyl-4-(4-(2-(pyrrolidin-1-yl)ethyl)phenoxy)-1H-pyrrolo[2,3-b]pyridine] are 5 to 50 nM and 5 to 50 nM.
In the same order, the values of `Cc1c[nH]c2nccc(Oc3ccc(C(C)N)cc3F)c12` (stereo not drawn) [Example 23, 1-(3-fluoro-4-((3-methyl-1H-pyrrolo[2,3-b]pyridin-4-yl)oxy)phenyl)ethanamine] are less than 5 nM and less than 5 nM.
Regarding `Cc1c[nH]c2nccc(Oc3ccc(C(C)N)cc3)c12` (stereo not drawn) [Example 24, 1-(4-((3-methyl-1H-pyrrolo[2,3-b]pyridin-4-yl)oxy)phenyl)ethanamine], the values for the Ki in assay [1] and in assay [2] were 5 to 50 nM and less than 5 nM, respectively.
In the case of `Cc1c[nH]c2nccc(Oc3ccc(C(C)(C)N)cc3)c12` [Example 25, 2-(4-((3-methyl-1H-pyrrolo[2,3-b]pyridin-4-yl)oxy)phenyl)propan-2-amine], the figures for the Ki in assay [1] and in assay [2] were 5 to 50 nM and less than 5 nM, respectively.
In the same order, the values of `Cc1c[nH]c2nccc(Oc3ccc4c(c3)CCCC4N)c12` (stereo not drawn) [Example 26] are 5 to 50 nM and 5 to 50 nM.
`Cc1c[nH]c2nccc(Oc3ccc(CN4CCOCC4)cc3)c12` [Example 27, 4-(4-((3-Methyl-1H-pyrrolo[2,3-b]pyridin-4-yl)oxy)benzyl)morpholine]: the Ki in assay [1] and in assay [2] was greater than 50 nM in each case.
As for `Cc1c[nH]c2nccc(Oc3ccc(CNC4CCOCC4)cc3)c12` [Example 28, N-(4-((3-methyl-1H-pyrrolo[2,3-b]pyridin-4-yl)oxy)benzyl)tetrahydro-2H-pyran-4-amine], the inhibitory constant (Ki) in assay [1] and in assay [2] was 5 to 50 nM each time.
`Cc1c[nH]c2nccc(Oc3ccc(CN(C)C)cc3)c12` [Example 29, N,N-dimethyl-1-(4-((3-methyl-1H-pyrrolo[2,3-b]pyridin-4-yl)oxy)phenyl)methanamine]: the Ki in assay [1] and in assay [2] was 5 to 50 nM throughout.
Take `Cc1c[nH]c2nccc(Oc3ccc(CNC4CCN(C)CC4)cc3)c12` [Example 30, 1-methyl-N-(4-((3-methyl-1H-pyrrolo[2,3-b]pyridin-4-yl)oxy)benzyl)piperidin-4-amine]: the inhibition constant (Ki) in assay [1] and in assay [2] was 5 to 50 nM each time.
On to `Cc1c[nH]c2nccc(Oc3ccc(CNCCO)cc3)c12` [Example 31, 2-((4-((3-methyl-1H-pyrrolo[2,3-b]pyridin-4-yl)oxy)benzyl)amino)ethanol], for which the inhibitory constant (Ki) in assay [1] and in assay [2] was 5 to 50 nM each time.
Consider `Cc1c[nH]c2nccc(Oc3ccc(CN4CCC5(CCNC5)C4)cc3)c12` (stereo not drawn) [Example 32, 4-(4-(2,7-diazaspiro[4.4]nonan-2-ylmethyl)phenoxy)-3-methyl-1H-pyrrolo[2,3-b]pyridine], for which the Ki in assay [1] and in assay [2] was 5 to 50 nM each time.
Consider `Cc1c[nH]c2nccc(Oc3ccc(CN4CCN(C)CC4)cc3)c12` [Example 33, 3-methyl-4-(4-((4-methylpiperazin-1-yl)methyl)phenoxy)-1H-pyrrolo[2,3-b]pyridine], for which the Ki in assay [1] was greater than 50 nM; in assay [2], 5 to 50 nM.
